Data reported in US4522813A, “Cyclic hexapeptide somatostatin analogs” (Merck & Co., Inc., priority 1983, dated 1985).

Assays:
[1] = test system: portal vein glucagon; experiment: Decrease of portal vein glucagon levels in anesthetized rats; assay type: in vivo, rat; details: multiple or fraction of the effect of somatostatin (=1), fiducial limits in parentheses, external jugular vein, portal vein blood after 5 minutes
Experimental: (§1) Analogs of somatostatin were compared to somatostatin in their ability to decrease the levels of portal vein glucagon and insulin in anesthetized rats. Male Sprague-Dawley rats (Charles River CD) weighing 160-200 g were anesthetized with urethane (150 mg/100 g of body weight; Aldrich). Saline or peptides were administered via the external jugular vein. After 5 minutes, the portal vein was exposed, and blood was collected via syringe containing 3 mg of EDTA and placed in chilled tubes containing 100 μl of Trasylol (FBA Pharmaceuticals) for subsequent hormone analysis. Plasma levels of glucagon were determined by the method of Faloona and Unger, Methods of Hormone Radioimmunoassay, Jaffe and Behrman (Eds), Academic Press, New York, Vol, II, pp. 257-527 (1976), utilizing glucagon antisera 30K obtained from R. Unger (Dallas, TX). Plasma levels of insulin were determined by a modification of the procedure of Herbert et al., J. Clin. Endocrinol. Metab., 25, 1375-1384 (1965).

[2] = test system: pentagastrin evoked gastric secretion; experiment: Inhibition of pentagastrin evoked gastric secretion in the chronic fistula dog; assay type: in vivo; parameters: dose or concentration left out as unconfirmed; details: infusion 0-60 min., relative to placebo trial; for Gastric Secretion & Inhibition, Acid Concentration 0-30 / Gastric Secretion & Inhibition, Vol. 0-30: interval 0-30 min; for Gastric Secretion & Inhibition, Acid Concentration 30-60 / Gastric Secretion & Inhibition, Vol. 30-60: interval 30-60 min; for Gastric Secretion & Inhibition, Acid Concentration 60-90 / Gastric Secretion & Inhibition, Vol. 60-90: interval 60-90 min; for Gastric Secretion & Inhibition, Acid Concentration 90-120 / Gastric Secretion & Inhibition, Vol. 90-120: interval 90-120 min
Experimental: The gastric effects of the instant cyclichexapeptide analogs of somatostatin are determined by the following procedure.
Compounds were tested for their ability to inhibit pentagastrin evoked gastric secretion in the chronic fistula dog. Female beagle dogs with a chronic gastric fistula were given pentagastrin (2.5 μg./kg./hour, i.v. from -60 to 120 min.) and gastric outputs were collected via the fistula cannula. Samples were analyzed at 30 minute intervals for volume (Ml.) and titratable acid (mEq/L) (Titration to pH 7 with 0.01N NaOH); total acid output (mEq) was calculated as the production of output volume and acid concentration. Test compounds were infused at a constant rate from 0 to 60 minutes. Data have been expressed as percent change of total acid output relative to a placebo trial in the same animals.

[3] = test system: growth hormone release from rat pituitary cells; experiment: In vitro inhibition of growth hormone release, cultured rat pituitary cells; assay type: cell-based; details: multiple or fraction of the effect of somatostatin (=1), fiducial limits in parentheses, 4 hours incubation
Experimental: The instant cyclic hexapeptide analogs of somatostatin are tested and compared with the effects of somatostatin in an in vitro test for the inhibition of growth hormone. The test is described as follows:
"Rat pituitaries were isolated according to the procedures of Vale and Grant "In vitro Pituitary Hormone Secretion Assay for Hypophysiotropic Substances" in Methods in Enzymology, Vol. XXXVII, eds. O'Malley, B. W. and Hardman, J. G. (Academic Press, Inc., New York) pp. 5-93 (1975).
After 4 days in culture, the cells were washed and incubated for 4 hours in Dulbecco-modified Eagle's medium in the presence or absence of graded doses of each analog or somatostatin. The medium was then collected for subsequent growth hormone determination by a double antibody radioimmunoassay for rat growth hormone."

[4] = test system: portal vein insulin; experiment: Decrease of portal vein insulin levels in anesthetized rats; assay type: in vivo, rat; details: multiple or fraction of the effect of somatostatin (=1), fiducial limits in parentheses, external jugular vein, portal vein blood after 5 minutes
Experimental: as §1

Compound	Glucagon Inhibition [1]	Gastric Secretion & Inhibition, Acid Concentration 0-30 [2] [%]	Gastric Secretion & Inhibition, Vol. 0-30 [2] [%]	Gastric Secretion & Inhibition, Acid Concentration 30-60 [2] [%]	Gastric Secretion & Inhibition, Vol. 30-60 [2] [%]	Gastric Secretion & Inhibition, Acid Concentration 60-90 [2] [%]	Gastric Secretion & Inhibition, Vol. 60-90 [2] [%]	Gastric Secretion & Inhibition, Acid Concentration 90-120 [2] [%]	Gastric Secretion & Inhibition, Vol. 90-120 [2] [%]	Growth Hormone Release Inhibition [3]	Insulin Inhibition [4]
C[C@H](N)C(=O)NCC(=O)N[C@H]1CSSC[C@@H](C(=O)O)NC(=O)[C@H](CO)NC(=O)[C@H]([C@@H](C)O)NC(=O)[C@H](Cc2ccccc2)NC(=O)[C@H]([C@@H](C)O)NC(=O)[C@H](CCCCN)NC(=O)[C@H](Cc2c[nH]c3ccccc23)NC(=O)[C@H](Cc2ccccc2)NC(=O)[C@H](Cc2ccccc2)NC(=O)[C@H](CC(N)=O)NC(=O)[C@H](CCCCN)NC1=O [Somatostatin]	1	16	85	77	97	61	81	14	37		
Cyclo--(Pro--Phe--D-Trp--cis-AChxAla--Thr--Phe)	2.2 (1.1, 4.7)	4	75	19	82	13	20	5	2	0.5 (0.3, 0.6)	1.4 (0.7, 2.7)
Cyclo--(Pro--Phe--D-Trp--t-D-AChxGly--Thr--Phe)	0.07									0.11	0.07
